# Structures can show the parent of a compound that is named as a salt.
# Tests used:
# ABUTH = experiment: Greenhouse post-emergence herbicidal action against ABUTH; type: in vivo, Abutilon theophrasti
# Source text: (§1) For the post-emergence treatment, the test plants were first grown to a height of 3 to 20 cm, depending on the plant habit, and only then treated. Here, the herbicidal compositions were suspended or emulsified in water as distribution medium and sprayed using finely distributing nozzles
# (§2) The respective components A and B and/or C were formulated as 10% by weight strength emulsion concentrate and introduced to the spray liquor with the amount of solvent system used for applying the active compound. In the examples, the solvent used was water.
# (§3) The test period extended over 21 days. During this time, the plants were tended, and their response to the treatments with active compound was evaluated.
# (§4) The evaluation for the damage caused by the chemical compositions was carried out using a scale from 0 to 100%, compared to the untreated control plants. Here, 0 means no damage and 100 means complete destruction of the plants.
# (§5) In the examples below, the value E which is to be expected if the activity of the individual compounds is just additive was calculated using the method of S. R. Colby (1967) “Calculating synergistic and antagonistic responses of herbicide combinations”, Weeds 15, p. 22 ff. E=X+Y−([…]) where • X=effect in percent using active compound A at an application rate a; • Y=effect in percent using active compound B at an application rate b; • E=expected effect (in %) of A+B at application rates a+b.
# (§6) If the observed effect is higher than the value E calculated according to Colby, a synergistic effect is present.
# ECHCG = experiment: Greenhouse post-emergence herbicidal action against ECHCG; type: in vivo, Echinochloa crus-galli
# Source text: as §1, §2, §3, §4, §5, §6
# COMBE = experiment: Greenhouse post-emergence herbicidal action against COMBE; type: in vivo, Commelina benghalensis
# Source text: as §1, §2, §3, §4, §5, §6
# POAPR = experiment: Pre-emergence herbicidal action against POAPR; type: in vivo, Poa pratensis; conditions: 21 days
# Protocol: as §4
# (§7) In the examples below, the mixtures were applied by the pre-emergence method. To this end, the test plants were initially sown and covered with a thin layer of soil. Afterward (i.e. prior to the germination of the test plants), the mixtures according to the invention were sprayed onto the soil as an aqueous spray liquor at the stated application rate. As in the post-emergence method described above, the test period was 21 days. The damage was then evaluated as described above using a scale from 0 to 100% damage in comparison to untreated control plants (0% damage).
# (§8) A safener action is present if the damage to the crop plant caused by using a mixture according to the invention which contains a safener C) is less than the damage caused when active compound A or active compounds A and B are used without safener.
# TRFPR = experiment: Pre-emergence herbicidal action against TRFPR; type: in vivo, Trifolium pratense; conditions: 21 days
# Protocol: as §4, §7, §8
# BRAPL = experiment: Greenhouse post-emergence herbicidal action against BRAPL; type: in vivo, Brachiaria plantaginea
# Source text: as §1, §2, §3, §4, §5, §6
# TRZAW = experiment: Pre-emergence safener action (crop damage) in TRZAW; type: in vivo, Triticum aestivum (Winter wheat); conditions: 21 days
# Protocol: as §4, §7, §8
# AVEFA = experiment: Greenhouse post-emergence herbicidal action against AVEFA; type: in vivo, Avena fatua; conditions: 21 days
# Source text: as §1, §2, §3, §4, §5, §6
# POLPE = experiment: Greenhouse post-emergence herbicidal action against POLPE; type: in vivo, Polygonum persicaria; conditions: 21 days
# Source text: as §1, §2, §3, §4, §5, §6
# ALOMY = experiment: Greenhouse post-emergence herbicidal action against ALOMY; type: in vivo, Alopecurus myosuroides; conditions: 21 days
# Source text: as §1, §2, §3, §4, §5, §6
# BIDPI = experiment: Greenhouse post-emergence herbicidal action against BIDPI; type: in vivo, Bidens pilosa
# Source text: as §1, §2, §3, §4, §5, §6
# SETFA = experiment: Greenhouse post-emergence herbicidal action against SETFA; type: in vivo, Setaria faberii
# Source text: as §1, §2, §3, §4, §5, §6
# GALAP = experiment: Greenhouse post-emergence herbicidal action against GALAP; type: in vivo, Galium aparine
# Source text: as §1, §2, §3, §4, §5, §6
# AMARE = experiment: Greenhouse post-emergence herbicidal action against AMARE; type: in vivo, Amaranthus retroflexus
# Source text: as §1, §2, §3, §4, §5, §6
# [1] = 21 days, application rate g/ha: I.7 1.95, b3.2 62.5
# [2] = 21 days, application rate g/ha: I.7 3.91, b3.2 125
# [3] = 21 days, application rate g/ha: I.7 1.95, b13.1 500
# [4] = 21 days, application rate g/ha: I.7 3.91, b13.1 1000
# [5] = I.7 200 g/ha and/or c.1 200 g/ha
# [6] = I.7 400 g/ha and/or c.1 400 g/ha
# [7] = application rate g/ha: I.7 1.95, b3.1 62.5
# [8] = application rate g/ha: I.7 1.95, b7.1 250
# [9] = application rate g/ha: I.7 3.91, b3.1 125
# [10] = application rate g/ha: I.7 3.91, b7.1 500
# [11] = application rate g/ha: I.7 1.95, b13.1 500
# [12] = application rate g/ha: I.7 3.91, b13.1 1000
# [13] = I.8 200 g/ha and/or c.1 200 g/ha
# [14] = I.8 400 g/ha and/or c.1 400 g/ha
# [15] = I.14 0.49 g/ha and/or b13.3 62.5 g/ha
# [16] = I.14 0.98 g/ha and/or b13.3 125 g/ha
# [17] = I.14 0.49 g/ha and/or b10.3 62.5 g/ha
# [18] = I.14 0.49 g/ha and/or b10.3 + c.2 62.5 + 3.13 g/ha
# [19] = I.14 0.49 g/ha and/or b11.1 62.5 g/ha
# [20] = I.14 0.98 g/ha and/or b10.3 125 g/ha
# [21] = I.14 0.98 g/ha and/or b10.3 + c.2 125 + 6.25 g/ha
# [22] = I.14 0.98 g/ha and/or b11.1 125 g/ha
# [23] = I.1 0.49 g/ha and/or b14.1 7.81 g/ha
# [24] = I.1 0.98 g/ha and/or b14.1 15.63 g/ha
compound,measurement,setting,value
CC(C)N(C)S(=O)(=O)NC(=O)c1cc(-n2c(=O)cc(C(F)(F)F)n(C)c2=O)c(F)cc1Cl [I.7],Herbicidal action against ABUTH found,"ABUTH; 21 days, application rate g/ha: I.7 0.98, b3.3 31.25",0%
same,Herbicidal action against ABUTH found,"ABUTH; 21 days, application rate g/ha: I.7 0.98, b3.4 31.25",0%
same,Herbicidal action against ABUTH found,"ABUTH; 21 days, application rate g/ha: I.7 1.95, b3.3 62.5",30%
same,Herbicidal action against ABUTH found,"ABUTH; 21 days, application rate g/ha: I.7 1.95, b3.4 62.5",30%
same,Herbicidal action against ECHCG found,ECHCG; [1],0%
same,Herbicidal action against ECHCG found,ECHCG; [2],30%
same,Herbicidal action against COMBE found,COMBE; [3],0%
same,Herbicidal action against COMBE found,COMBE; [4],0%
same,Herbicidal action against POAPR,POAPR; [5],98%
same,Herbicidal action against POAPR,POAPR; [6],98%
same,Herbicidal action against TRFPR,TRFPR; [5],100%
same,Herbicidal action against TRFPR,TRFPR; [6],100%
same,Herbicidal action against BRAPL found,BRAPL; [1],40%
same,Herbicidal action against BRAPL found,BRAPL; [2],60%
same,Damage to crop plant TRZAW,TRZAW; [5],10%
same,Damage to crop plant TRZAW,TRZAW; [6],35%
same,Herbicidal action against AVEFA found,AVEFA; [7],10%
same,Herbicidal action against AVEFA found,"AVEFA; application rate g/ha: I.7 1.95, b6.1 125",10%
same,Herbicidal action against AVEFA found,AVEFA; [8],10%
same,Herbicidal action against AVEFA found,AVEFA; [9],15%
same,Herbicidal action against AVEFA found,"AVEFA; application rate g/ha: I.7 3.91, b6.1 250",15%
same,Herbicidal action against AVEFA found,AVEFA; [10],15%
same,Herbicidal action against POLPE found,POLPE; [7],0%
same,Herbicidal action against POLPE found,POLPE; [8],0%
same,Herbicidal action against POLPE found,POLPE; [11],0%
same,Herbicidal action against POLPE found,POLPE; [9],25%
same,Herbicidal action against POLPE found,POLPE; [10],25%
same,Herbicidal action against POLPE found,POLPE; [12],25%
CC(C)N(C)S(=O)(=O)NC(=O)c1cc(-n2c(=O)cc(C(F)(F)F)n(N)c2=O)c(F)cc1Cl [I.8],Herbicidal action against ECHCG found,"ECHCG; 21 days, application rate g/ha: I.8 1.95, b5.2 31.25",20%
same,Herbicidal action against ECHCG found,"ECHCG; 21 days, application rate g/ha: I.8 3.91, b5.2 62.5",40%
same,Herbicidal action against POAPR,POAPR; [13],98%
same,Herbicidal action against POAPR,POAPR; [14],100%
same,Herbicidal action against TRFPR,TRFPR; [13],100%
same,Herbicidal action against TRFPR,TRFPR; [14],100%
same,Herbicidal action against BRAPL found,"BRAPL; 21 days, application rate g/ha: I.8 0.98, b5.1 7.81",30%
same,Herbicidal action against BRAPL found,"BRAPL; 21 days, application rate g/ha: I.8 1.95, b5.1 15.63",40%
same,Damage to crop plant TRZAW,TRZAW; [13],30%
same,Damage to crop plant TRZAW,TRZAW; [14],65%
same,Herbicidal action against ALOMY found,"ALOMY; application rate g/ha: I.8 0.49, b2.1 7.81",5%
same,Herbicidal action against ALOMY found,"ALOMY; application rate g/ha: I.8 0.98, b2.1 15.63",10%
same,Herbicidal action against POLPE found,"POLPE; application rate g/ha: I.8 0.98, b5.1 7.81",10%
same,Herbicidal action against POLPE found,"POLPE; application rate g/ha: I.8 1.95, b5.1 15.63",20%
same,Herbicidal action against BIDPI found,"BIDPI; 21 days, application rate g/ha: I.8 0.49, b2.2 7.81",10%
same,Herbicidal action against BIDPI found,"BIDPI; 21 days, application rate g/ha: I.8 0.98, b2.2 15.63",20%
CC(C)CN(C)S(=O)(=O)NC(=O)c1cc(-n2c(=O)cc(C(F)(F)F)n(N)c2=O)c(F)cc1Cl [I.14],Herbicidal action against ABUTH found,ABUTH; [15],0%
same,Herbicidal action against ABUTH found,ABUTH; [16],20%
same,Herbicidal action against ECHCG found,ECHCG; I.14 1.95 g/ha and/or b13.2 125 g/ha,40%
same,Herbicidal action against ECHCG found,ECHCG; I.14 3.91 g/ha and/or b13.2 250 g/ha,70%
same,Herbicidal action against COMBE found,COMBE; I.14 1.95 g/ha and/or b.15.1 125 g/ha,0%
same,Herbicidal action against COMBE found,COMBE; I.14 3.91 g/ha and/or b.15.1 250 g/ha,40%
same,Herbicidal action against BRAPL found,"BRAPL; 21 days, application rate g/ha: I.14 0.49, b2.3 0.98",0%
same,Herbicidal action against BRAPL found,"BRAPL; 21 days, application rate g/ha: I.14 0.98, b2.3 1.95",0%
same,Herbicidal action against BRAPL found,BRAPL; [15],10%
same,Herbicidal action against BRAPL found,BRAPL; [16],15%
same,Herbicidal action against SETFA found,SETFA; [17],20%
same,Herbicidal action against SETFA found,SETFA; [18],20%
same,Herbicidal action against SETFA found,SETFA; [19],20%
same,Herbicidal action against SETFA found,SETFA; [20],25%
same,Herbicidal action against SETFA found,SETFA; [21],25%
same,Herbicidal action against SETFA found,SETFA; [22],25%
same,Herbicidal action against ALOMY found,"ALOMY; application rate g/ha: I.14 0.49, b2.3 0.98",0%
same,Herbicidal action against ALOMY found,"ALOMY; application rate g/ha: I.14 0.98, b2.3 1.95",0%
same,Herbicidal action against GALAP found,GALAP; [17],0%
same,Herbicidal action against GALAP found,GALAP; [18],0%
same,Herbicidal action against GALAP found,GALAP; [19],0%
same,Herbicidal action against GALAP found,GALAP; [20],25%
same,Herbicidal action against GALAP found,GALAP; [21],25%
same,Herbicidal action against GALAP found,GALAP; [22],25%
same,Herbicidal action against BIDPI found,"BIDPI; 21 days, application rate g/ha: I.14 1.95, b10.2 250",40%
same,Herbicidal action against BIDPI found,"BIDPI; 21 days, application rate g/ha: I.14 3.91, b10.2 500",85%
"CNC.C[C@@H](Oc1ccc(Cl)cc1Cl)C(=O)O [b13.1, dichlorprop-P dimethylammonium salt, reference compound]",Herbicidal action against COMBE found,COMBE; [3],40%
same,Herbicidal action against COMBE found,COMBE; [4],75%
same,Herbicidal action against POLPE found,POLPE; [11],30%
same,Herbicidal action against POLPE found,POLPE; [12],30%
"C/C(=N\NC(=O)Nc1cc(F)cc(F)c1)c1ncccc1C(=O)O [b14.1, diflufenzopyr sodium salt, reference compound]",Herbicidal action against AMARE found,AMARE; [23],0%
same,Herbicidal action against AMARE found,AMARE; [24],0%
same,Herbicidal action against BIDPI found,BIDPI; [23],20%
same,Herbicidal action against BIDPI found,BIDPI; [24],30%
"CCOC(=O)C1=NN(c2ccc(Cl)cc2Cl)C(C)(C(=O)OCC)C1 (stereo not drawn) [c.1, mefenpyr-diethyl, reference compound]",Herbicidal action against POAPR,POAPR; [5],0%
same,Herbicidal action against POAPR,POAPR; [6],0%
same,Herbicidal action against POAPR,POAPR; [13],0%
same,Herbicidal action against POAPR,POAPR; [14],0%
same,Herbicidal action against TRFPR,TRFPR; [5],5%
same,Herbicidal action against TRFPR,TRFPR; [6],5%
same,Herbicidal action against TRFPR,TRFPR; [13],5%
same,Herbicidal action against TRFPR,TRFPR; [14],5%
same,Damage to crop plant TRZAW,TRZAW; [5],0%
same,Damage to crop plant TRZAW,TRZAW; [6],0%
same,Damage to crop plant TRZAW,TRZAW; [13],0%
same,Damage to crop plant TRZAW,TRZAW; [14],0%
